Experimental data reported in paper PMC5218480 (PLoS ONE, 2017).

Tested on: MV-4-11 cells
Experiment: Gene expression microarray analysis (Affymetrix PrimeView) and GSEA
Assay type: cell-based, human
Parameters: RFU PODN (11730768_x_at) / Fold change /veh PODN (11730768_x_at) / RFU LINC00158 (11744669_a_at) / Fold change /veh LINC00158 (11744669_a_at) / RFU DUSP10 (11751237_a_at) / Fold change /veh DUSP10 (11751237_a_at) / RFU ID3 (11757404_x_at) / Fold change /veh ID3 (11757404_x_at) / RFU PLEKHG5 (11737974_s_at) / Fold change /veh PLEKHG5 (11737974_s_at) / RFU LRRC4B (11730491_at) / Fold change /veh LRRC4B (11730491_at) / RFU GIMAP4 (11747438_a_at) / Fold change /veh GIMAP4 (11747438_a_at) / RFU KRT8 (11758183_x_at) / Fold change /veh KRT8 (11758183_x_at) / RFU CNN1 (11734310_a_at) / Fold change /veh CNN1 (11734310_a_at) / RFU VPS37D (11726825_at) / Fold change /veh VPS37D (11726825_at) / RFU C10orf10 (11716522_x_at) / Fold change /veh C10orf10 (11716522_x_at) / RFU KIR2DL2 /// KIR2DL4 /// KIR2DL5A /// KIR2DL5B /// KIR2DS1 /// KIR2DS2 /// KIR2DS3 /// KIR2DS4 /// KIR3DL3 /// KIR3DL3 /// KIR3DS1 (11738374_at) / Fold change /veh KIR2DL2 /// KIR2DL4 /// KIR2DL5A /// KIR2DL5B /// KIR2DS1 /// KIR2DS2 /// KIR2DS3 /// KIR2DS4 /// KIR3DL3 /// KIR3DL3 /// KIR3DS1 (11738374_at) / RFU C1QL1 (11718748_at) / Fold change /veh C1QL1 (11718748_at) / RFU TMPRSS4 (11747572_a_at) / Fold change /veh TMPRSS4 (11747572_a_at) / RFU HAMP (11756126_x_at) / Fold change /veh HAMP (11756126_x_at) / RFU RNFT2 (11725882_a_at) / Fold change /veh RNFT2 (11725882_a_at) / RFU NR4A2 (11747474_a_at) / Fold change /veh NR4A2 (11747474_a_at) / RFU ABCC12 (11746883_a_at) / Fold change /veh ABCC12 (11746883_a_at) / RFU TMEM136 (11760407_x_at) / Fold change /veh TMEM136 (11760407_x_at) / RFU CLDN22 /// WWC2 (11732394_at) / Fold change /veh CLDN22 /// WWC2 (11732394_at) / RFU HLA-DPB1 (11760878_x_at) / Fold change /veh HLA-DPB1 (11760878_x_at) / RFU SPINT1 (11716480_a_at) / Fold change /veh SPINT1 (11716480_a_at) / RFU GAP43 (11754022_s_at) / Fold change /veh GAP43 (11754022_s_at) / RFU A4GNT (11735810_at) / Fold change /veh A4GNT (11735810_at) / RFU PRB3 (11715151_x_at) / Fold change /veh PRB3 (11715151_x_at) / RFU TUBB4B (11761932_at) / Fold change /veh TUBB4B (11761932_at) / RFU CAPN14 (11732068_a_at) / Fold change /veh CAPN14 (11732068_a_at) / RFU TMCC2 (11721928_a_at) / Fold change /veh TMCC2 (11721928_a_at) / RFU IRGQ (11745062_a_at) / Fold change /veh IRGQ (11745062_a_at) / RFU FAM174B (11720279_a_at) / Fold change /veh FAM174B (11720279_a_at) / RFU TMPRSS4 (11748680_a_at) / Fold change /veh TMPRSS4 (11748680_a_at) / RFU FAM212B (11763350_a_at) / Fold change /veh FAM212B (11763350_a_at) / RFU PLEKHG5 (11743358_a_at) / Fold change /veh PLEKHG5 (11743358_a_at) / RFU ZSCAN30 (11745921_a_at) / Fold change /veh ZSCAN30 (11745921_a_at) / RFU CMKLR1 (11741424_a_at) / Fold change /veh CMKLR1 (11741424_a_at) / RFU LOC101060620 /// MAPK8IP1 (11723275_at) / Fold change /veh LOC101060620 /// MAPK8IP1 (11723275_at) / RFU SPTSSB (11747773_x_at) / Fold change /veh SPTSSB (11747773_x_at) / RFU PRSS12 (11739890_at) / Fold change /veh PRSS12 (11739890_at) / RFU BIN1 (11741810_x_at) / Fold change /veh BIN1 (11741810_x_at) / RFU WNT11 (11732464_a_at) / Fold change /veh WNT11 (11732464_a_at) / RFU C10orf10 (11716521_a_at) / Fold change /veh C10orf10 (11716521_a_at) / RFU C5orf56 (11738089_at) / Fold change /veh C5orf56 (11738089_at) / RFU CYB561 (11721691_x_at) / Fold change /veh CYB561 (11721691_x_at) / RFU ANKRD19P (11752326_a_at) / Fold change /veh ANKRD19P (11752326_a_at) / RFU OR2T12 /// OR2T33 /// OR2T8 (11738714_s_at) / Fold change /veh OR2T12 /// OR2T33 /// OR2T8 (11738714_s_at) / RFU VCAN (11748164_a_at) / Fold change /veh VCAN (11748164_a_at) / RFU JSRP1 (11732532_at) / Fold change /veh JSRP1 (11732532_at) / RFU KRTAP10-11 (11738290_x_at) / Fold change /veh KRTAP10-11 (11738290_x_at) / RFU MYO3A (11730013_a_at) / Fold change /veh MYO3A (11730013_a_at) / RFU EBF3 (11725865_a_at) / Fold change /veh EBF3 (11725865_a_at) / RFU CAMK2N1 (11719241_x_at) / Fold change /veh CAMK2N1 (11719241_x_at) / RFU C5orf56 (11738088_a_at) / Fold change /veh C5orf56 (11738088_a_at) / RFU OLFML3 (11715873_a_at) / Fold change /veh OLFML3 (11715873_a_at) / RFU LOC100653217 /// NTM (11731650_a_at) / Fold change /veh LOC100653217 /// NTM (11731650_a_at) / RFU MAPK11 (11762145_a_at) / Fold change /veh MAPK11 (11762145_a_at) / RFU FIZ1 (11724087_x_at) / Fold change /veh FIZ1 (11724087_x_at) / RFU OASL (11726364_x_at) / Fold change /veh OASL (11726364_x_at) / RFU SOX15 (11748057_x_at) / Fold change /veh SOX15 (11748057_x_at) / RFU CD79A (11719716_a_at) / Fold change /veh CD79A (11719716_a_at) / RFU HIST1H1D (11736915_at) / Fold change /veh HIST1H1D (11736915_at) / RFU CASKIN2 (11723855_a_at) / Fold change /veh CASKIN2 (11723855_a_at) / RFU LOC730098 (11760151_x_at) / Fold change /veh LOC730098 (11760151_x_at) / RFU OR4N2 (11742367_at) / Fold change /veh OR4N2 (11742367_at) / RFU PRRT2 (11749266_a_at) / Fold change /veh PRRT2 (11749266_a_at) / RFU SNX32 (11753110_a_at) / Fold change /veh SNX32 (11753110_a_at) / RFU CDHR5 (11726645_a_at) / Fold change /veh CDHR5 (11726645_a_at) / RFU RCAN1 (11760418_a_at) / Fold change /veh RCAN1 (11760418_a_at) / RFU FAM167A (11723789_a_at) / Fold change /veh FAM167A (11723789_a_at) / RFU FAM26E (11764081_at) / Fold change /veh FAM26E (11764081_at) / RFU ISYNA1 (11749810_s_at) / Fold change /veh ISYNA1 (11749810_s_at) / RFU ACY1 (11761880_at) / Fold change /veh ACY1 (11761880_at) / RFU 11764098_at / Fold change /veh 11764098_at / RFU SAMD14 (11745864_x_at) / Fold change /veh SAMD14 (11745864_x_at) / RFU NPB (11741838_a_at) / Fold change /veh NPB (11741838_a_at) / RFU TMPRSS6 (11731388_a_at) / Fold change /veh TMPRSS6 (11731388_a_at) / RFU KRTAP10-2 (11738614_at) / Fold change /veh KRTAP10-2 (11738614_at) / RFU ARHGAP8 /// PRR5-ARHGAP8 (11727945_x_at) / Fold change /veh ARHGAP8 /// PRR5-ARHGAP8 (11727945_x_at) / RFU KRTAP5-7 /// NADSYN1 (11734609_at) / Fold change /veh KRTAP5-7 /// NADSYN1 (11734609_at) / RFU RASL12 (11751679_a_at) / Fold change /veh RASL12 (11751679_a_at) / RFU CDKN2B (11736163_a_at) / Fold change /veh CDKN2B (11736163_a_at) / RFU PRF1 (11729649_at) / Fold change /veh PRF1 (11729649_at) / RFU, ZNF638 /// ZNF638-IT1 / Fold change vs veh, ZNF638 /// ZNF638-IT1 / RFU, PANK3 / Fold change vs veh, PANK3 / RFU, SH3YL1 / Fold change vs veh, SH3YL1 / RFU, ZEB2 / Fold change vs veh, ZEB2 / RFU, NRIP1 / Fold change vs veh, NRIP1 / RFU, PTTG1IP / Fold change vs veh, PTTG1IP / RFU, CAPN2 / Fold change vs veh, CAPN2 / RFU, MED14 / Fold change vs veh, MED14 / RFU, SNORA58 / Fold change vs veh, SNORA58 / RFU, C1orf63 / Fold change vs veh, C1orf63 / RFU, LRRFIP1 / Fold change vs veh, LRRFIP1 / RFU, NDUFAF7 / Fold change vs veh, NDUFAF7 / RFU, SLC12A2 / Fold change vs veh, SLC12A2 / RFU, IBTK / Fold change vs veh, IBTK / RFU, ESF1 / Fold change vs veh, ESF1 / Fold change vs veh, TMEM50B / RFU, TAOK1 / Fold change vs veh, TAOK1 / RFU, ACBD3 / Fold change vs veh, ACBD3 / RFU, TMA16 / Fold change vs veh, TMA16 / RFU, RWDD3 / Fold change vs veh, RWDD3 / RFU, BCAT1 / Fold change vs veh, BCAT1 / RFU, EDEM3 / Fold change vs veh, EDEM3 / RFU, TMEM33 / Fold change vs veh, TMEM33 / RFU, WDR75 / Fold change vs veh, WDR75 / RFU, AHCTF1 / Fold change vs veh, AHCTF1 / RFU, TFRC / Fold change vs veh, TFRC / RFU, ZDHHC17 / Fold change vs veh, ZDHHC17 / RFU, NOM1 / Fold change vs veh, NOM1 / RFU, ARL8B / Fold change vs veh, ARL8B / RFU, ZBTB11 / Fold change vs veh, ZBTB11 / RFU, TAMM41 / Fold change vs veh, TAMM41 / RFU, KIAA1704 /// LOC100996395 / Fold change vs veh, KIAA1704 /// LOC100996395 / RFU, ING1 / Fold change vs veh, ING1 / RFU, TRMT61B / Fold change vs veh, TRMT61B / RFU, FUBP3 / Fold change vs veh, FUBP3 / RFU, TP53 / Fold change vs veh, TP53 / RFU, TNKS2 / Fold change vs veh, TNKS2 / RFU, ZFP14 / Fold change vs veh, ZFP14 / RFU, ACTR2 / Fold change vs veh, ACTR2 / RFU, PPP3R1 / Fold change vs veh, PPP3R1 / RFU, PIK3R1 / Fold change vs veh, PIK3R1 / RFU, HNRNPA1 / Fold change vs veh, HNRNPA1 / RFU, RNF170 / Fold change vs veh, RNF170 / RFU, ZNF28 / Fold change vs veh, ZNF28 / RFU, RNGTT / Fold change vs veh, RNGTT / RFU, OGT / Fold change vs veh, OGT / RFU, BRD1 / Fold change vs veh, BRD1 / RFU, MARS / Fold change vs veh, MARS / RFU, ZNF655 / Fold change vs veh, ZNF655 / RFU, FAHD1 / Fold change vs veh, FAHD1 / RFU, BDP1 / Fold change vs veh, BDP1 / RFU, LRRCC1 / Fold change vs veh, LRRCC1 / RFU, ARID1A / Fold change vs veh, ARID1A / RFU, ZNF146 / Fold change vs veh, ZNF146 / RFU, ZNF330 / Fold change vs veh, ZNF330 / RFU, GPN3 / Fold change vs veh, GPN3 / RFU, C9orf123 / Fold change vs veh, C9orf123 / RFU, N4BP2L2 / Fold change vs veh, N4BP2L2 / RFU, ARFIP1 / Fold change vs veh, ARFIP1 / RFU, FAM179B / Fold change vs veh, FAM179B / RFU, BCL10 / Fold change vs veh, BCL10 / RFU, UHRF1BP1L / Fold change vs veh, UHRF1BP1L / RFU, BET1 / Fold change vs veh, BET1 / RFU, CNOT2 / Fold change vs veh, CNOT2 / RFU, ZNF268 / Fold change vs veh, ZNF268 / Fold change vs veh, ZNF507 / RFU, DGCR2 / Fold change vs veh, DGCR2 / RFU, WDSUB1 / Fold change vs veh, WDSUB1 / Fold change vs veh, HSP90B1 /// MIR3652 / RFU, ADSS / Fold change vs veh, ADSS / RFU, GK / Fold change vs veh, GK / RFU, ZNF148 / Fold change vs veh, ZNF148 / RFU, TAF9 / Fold change vs veh, TAF9 / RFU, SLC1A5 / Fold change vs veh, SLC1A5 / RFU, SLMO2 / Fold change vs veh, SLMO2 / RFU, ABCC4 / Fold change vs veh, ABCC4 / RFU, LOC101060439 /// RAP1B / Fold change vs veh, LOC101060439 /// RAP1B / RFU, RFX7 / Fold change vs veh, RFX7 / RFU, GTPBP10 / Fold change vs veh, GTPBP10 / RFU, CNEP1R1 / Fold change vs veh, CNEP1R1 / RFU, BIVM-ERCC5 /// ERCC5 / Fold change vs veh, BIVM-ERCC5 /// ERCC5 / RFU, ILF3 / Fold change vs veh, ILF3 / RFU 11762660_at / Fold change /veh 11762660_at / RFU VCAN (11757783_s_at) / Fold change /veh VCAN (11757783_s_at) / RFU DDX43 (11728927_at) / Fold change /veh DDX43 (11728927_at) / RFU KRT8 (11758188_x_at) / Fold change /veh KRT8 (11758188_x_at) / RFU NKD1 (11759106_at) / Fold change /veh NKD1 (11759106_at) / RFU SRD5A1 (11742802_a_at) / Fold change /veh SRD5A1 (11742802_a_at) / RFU TPSAB1 /// TPSB2 (11721975_s_at) / Fold change /veh TPSAB1 /// TPSB2 (11721975_s_at) / RFU GSTM3 (11746129_a_at) / Fold change /veh GSTM3 (11746129_a_at) / RFU IL23R (11737362_x_at) / Fold change /veh IL23R (11737362_x_at) / RFU TMEM51 (11727254_a_at) / Fold change /veh TMEM51 (11727254_a_at) / RFU PIWIL2 (11732686_x_at) / Fold change /veh PIWIL2 (11732686_x_at) / RFU ORM1 (11744905_x_at) / Fold change /veh ORM1 (11744905_x_at) / RFU CCDC152 (11743942_at) / Fold change /veh CCDC152 (11743942_at) / RFU ECM1 (11717891_a_at) / Fold change /veh ECM1 (11717891_a_at) / RFU IL23R (11748794_a_at) / Fold change /veh IL23R (11748794_a_at) / RFU TNFAIP8L3 (11732012_x_at) / Fold change /veh TNFAIP8L3 (11732012_x_at) / RFU MBOAT4 (11741988_at) / Fold change /veh MBOAT4 (11741988_at) / RFU 11764193_at / Fold change /veh 11764193_at / RFU TMEM53 (11763286_at) / Fold change /veh TMEM53 (11763286_at) / RFU MAGEB2 (11727129_at) / Fold change /veh MAGEB2 (11727129_at) / RFU TMEM200A (11744735_a_at) / Fold change /veh TMEM200A (11744735_a_at) / RFU CCDC152 (11751479_a_at) / Fold change /veh CCDC152 (11751479_a_at) / RFU FAM211A (11726209_a_at) / Fold change /veh FAM211A (11726209_a_at) / RFU RGS16 (11746705_a_at) / Fold change /veh RGS16 (11746705_a_at) / RFU VCAN (11755009_s_at) / Fold change /veh VCAN (11755009_s_at) / RFU RHOB (11743442_s_at) / Fold change /veh RHOB (11743442_s_at) / RFU RGS16 (11720943_a_at) / Fold change /veh RGS16 (11720943_a_at) / RFU RGS16 (11720944_at) / Fold change /veh RGS16 (11720944_at) / RFU, VPS4B / Fold change vs veh, VPS4B / RFU, CREB1 / Fold change vs veh, CREB1 / RFU, DNAJC13 / Fold change vs veh, DNAJC13 / RFU, GNAQ / Fold change vs veh, GNAQ / RFU, CDK5R1 / Fold change vs veh, CDK5R1 / RFU, ZRANB3 / Fold change vs veh, ZRANB3 / RFU, CUL4A / Fold change vs veh, CUL4A / RFU, CCNY / Fold change vs veh, CCNY / RFU, UFL1 / Fold change vs veh, UFL1 / RFU, COG3 / Fold change vs veh, COG3 / RFU, DIAPH2 / Fold change vs veh, DIAPH2 / RFU, SKA2 / Fold change vs veh, SKA2 / RFU, AFF3 / Fold change vs veh, AFF3 / RFU, LMF1 / Fold change vs veh, LMF1 / RFU, IPO11 / Fold change vs veh, IPO11 / RFU, DFFB / Fold change vs veh, DFFB / RFU, FOXP1 / Fold change vs veh, FOXP1 / RFU, CARD8 / Fold change vs veh, CARD8 / RFU, STRN3 / Fold change vs veh, STRN3 / RFU, ADK / Fold change vs veh, ADK / RFU, RASSF2 / Fold change vs veh, RASSF2 / RFU, WIPF1 / Fold change vs veh, WIPF1 / RFU, LARP1B / Fold change vs veh, LARP1B / RFU, RASA1 / Fold change vs veh, RASA1 / RFU, RB1 / Fold change vs veh, RB1 / RFU, PPFIA1 / Fold change vs veh, PPFIA1 / RFU, MAT2A / Fold change vs veh, MAT2A / RFU, CCT5 / Fold change vs veh, CCT5 / RFU, WDR92 / Fold change vs veh, WDR92 / RFU, CUX1 / Fold change vs veh, CUX1 / RFU, TTC7A / Fold change vs veh, TTC7A / RFU, TMEM135 / Fold change vs veh, TMEM135 / RFU, DEPTOR / Fold change vs veh, DEPTOR / RFU, CPM / Fold change vs veh, CPM / RFU, DNAJB6 / Fold change vs veh, DNAJB6 / RFU, CACNA2D3 / Fold change vs veh, CACNA2D3 / RFU, DTX4 / Fold change vs veh, DTX4 / RFU, TFCP2 / Fold change vs veh, TFCP2 / RFU, GMCL1 /// GMCL1P1 / Fold change vs veh, GMCL1 /// GMCL1P1 / RFU, AEBP2 / Fold change vs veh, AEBP2 / RFU, SNHG1 /// SNORD22 /// SNORD25 /// SNORD26 /// SNORD27 /// SNORD28 /// SNORD29 /// SNORD31 / Fold change vs veh, SNHG1 /// SNORD22 /// SNORD25 /// SNORD26 /// SNORD27 /// SNORD28 /// SNORD29 /// SNORD31 / Fold change (Aza/veh), C12orf56 (ProbeSet 11735607_a_at) / Fold change (ACY-1035/veh), C12orf56 (ProbeSet 11735607_a_at) / Fold change (Aza/veh), FGFR1OP (ProbeSet 11751329_s_at) / Fold change (ACY-1035/veh), FGFR1OP (ProbeSet 11751329_s_at) / Fold change (Aza/veh), VPS36 (ProbeSet 11739960_a_at) / Fold change (ACY-1035/veh), VPS36 (ProbeSet 11739960_a_at) / RFU SYPL1 (11715823_x_at) / Fold change /veh SYPL1 (11715823_x_at) / RFU IGFBP7 (11715501_s_at) / Fold change /veh IGFBP7 (11715501_s_at) / RFU REEP3 (11722064_at) / Fold change /veh REEP3 (11722064_at) / RFU IGLL1 (11728026_x_at) / Fold change /veh IGLL1 (11728026_x_at): dose or concentration left out as unconfirmed
Conditions: MV-4-11 cells, 48 hours

Compound: Nc1ccc(-c2cccs2)cc1NC(=O)c1ccc2c(c1)cc(C1CC1)n2CCN1CCOCC1 [ACY-1035]
- Fold change /veh GIMAP4 (11747438_a_at): 1.02
